From US8829007B2 (priority 2009, dated 2014)
Where two headings read alike, the source gives them in different places.

How the values were obtained:
[1] = tested on: A/PR/8/34 influenza virus; assay: microbe, parasite or virus in culture; assay type: cell-based
[2] = tested on: influenza A virus (A/PR/8/34); assay: microbe, parasite or virus in culture; assay type: cell-based
[3] = Influenza A virus, PR/8, MDCK, MDCK cells infected with A/PR/8/34, replication of influenza virus (viral RNA, bDNA), class symbols, read-out: EC50 (mean all)
[4] = Influenza A virus, PR/8, MDCK, MDCK cells infected with A/PR/8/34, survival of infected cells, class symbols, read-out: IC50 (mean all)
[5] = Influenza A virus, PR/8, mean all, replication of A/PR/8/34 influenza virus (bDNA assay), read-out: EC50
[6] = Influenza A virus, PR/8, MDCK, mean all, survival of A/PR/8/34 infected MDCK cells (CPE assay), read-out: IC50
[7] = Influenza A virus, PR/8, MDCK, MDCK cells infected with A/PR/8/34, bDNA viral RNA, read-out: EC50 (mean all)
[8] = Influenza A virus, PR/8, MDCK, MDCK cells infected with A/PR/8/34, cell protection (CPE), read-out: IC50 (mean all)
[9] = Influenza A virus, PR/8, MDCK, mean all, A/PR/8/34 influenza virus in MDCK cells, bDNA assay, read-out: EC50
[10] = Influenza A virus, PR/8, MDCK, mean all, A/PR/8/34 infected MDCK cells, CPE assay, read-out: IC50
[11] = Influenza A virus, PR/8, MDCK, bDNA assay, A/PR/8/34 influenza virus replication in MDCK cells, class symbols, read-out: EC50 (mean all)

## 1-[(1S,2S)-2-[[2-(5-chloro-1H-pyrrolo[2,3-b]pyridin-3-yl)-5-fluoro-pyrimidin-4-yl]amino]cyclohexyl]-3-methyl-urea [Compound 426]
[1]; mean all, A/PR/8/34 influenza virus in MDCK cells, bDNA assay, read-out: EC50
  EC50: < 5 µM
[2]; read-out: IC50
  IC50: < 5 µM

## O=C(O)[C@H]1CCCC[C@@H]1Nc1nc(-c2c[nH]c3ncc(Cl)cc23)ncc1F (racemic) [Compound 541, Trans-2-(2-(5-chloro-1H-pyrrolo[2,3-b]pyridin-3-yl)-5-fluoropyrimidin-4-ylamino)cyclohexanecarboxylic acid]
[1]; [3]
  EC50: < 5 µM
[2]; [4]
  IC50: < 5 µM

## N[C@@H]1CCCC[C@H]1CNc1nc(-c2c[nH]c3ncc(Cl)cc23)ncc1F (racemic) [Compound 555, N-((trans-2-aminocyclohexyl)methyl)-2-(5-chloro-1H-pyrrolo[2,3-b]pyridin-3-yl)-5-fluoropyrimidin-4-amine]
[1]; [3]
  EC50: < 5 µM
[2]; [4]
  IC50: > 10 µM

## O=C(O)[C@H]1[C@@H]2CC[C@@H](C2)[C@@H]1Nc1nc(-c2c[nH]c3ncc(Cl)cc23)ncc1F (racemic) [Compound 946]
[1]; [5]
  EC50: < 5 µM
[2]; [6]
  IC50: < 5 µM

## O=C(O)[C@H]1C(Nc2nc(-c3c[nH]c4ncc(Cl)cc34)ncc2F)[C@H]2CC[C@@H]1C2 (mixture of isomers) [Compound 947]
[1]; [5]
  EC50: < 5 µM
[2]; [6]
  IC50: < 5 µM

## O[C@@H]1CCCC[C@H]1Nc1nc(-c2c[nH]c3ncccc23)ncc1F (relative stereo) [Compound 207, Trans-2-[[5-fluoro-2-(1H-pyrrolo[2,3-b]pyridin-3-yl)pyrimidin-4-yl]amino]cyclohexanol]
[1]; [7]
  EC50: < 5 µM
[2]; [8]
  IC50: < 5 µM

## O[C@@H]1CCCC[C@@H]1Nc1nc(-c2c[nH]c3ncccc23)ncc1F (relative stereo) [Compound 277, Cis-2-[[5-fluoro-2-(1H-pyrrolo[2,3-b]pyridin-3-yl)pyrimidin-4-yl]amino]cyclohexanol]
[1]; [7]
  EC50: < 5 µM
[2]; [8]
  IC50: < 5 µM

## CC(=O)N[C@H]1CCC[C@@H](Nc2nc(-c3c[nH]c4ncc(Cl)cc34)ncc2F)C1 (relative stereo) [Compound 452, N-[cis-3-[[2-(5-chloro-1H-pyrrolo[2,3-b]pyridin-3-yl)-5-fluoropyrimidin-4-yl]amino]cyclohexyl]acetamide]
[1]; [9]
  EC50: < 5 µM
[2]; [10]
  IC50: < 5 µM

## CNC(=O)N[C@H]1CCC[C@@H](Nc2nc(-c3c[nH]c4ncc(Cl)cc34)ncc2F)C1 (relative stereo) [Compound 455, 1-[cis-3-[[2-(5-chloro-1H-pyrrolo[2,3-b]pyridin-3-yl)-5-fluoro-pyrimidin-4-yl]amino]cyclohexyl]-3-methyl-urea]
[1]; [9]
  EC50: < 5 µM
[2]; [10]
  IC50: < 5 µM

## CN(C)C(=O)N[C@H]1CCC[C@@H](Nc2nc(-c3c[nH]c4ncc(Cl)cc34)ncc2F)C1 (relative stereo) [Compound 456, 3-[cis-3-[[2-(5-chloro-1H-pyrrolo[2,3-b]pyridin-3-yl)-5-fluoro-pyrimidin-4-yl]amino]cyclohexyl]-1,1-dimethyl-urea]
[1]; [9]
  EC50: < 5 µM
[2]; [10]
  IC50: < 5 µM

## CC(=O)N[C@H]1CCC[C@H](Nc2nc(-c3c[nH]c4ncc(Cl)cc34)ncc2F)C1.CC(N)=O (relative stereo) [Compound 457, N-[trans-3-[[2-(5-chloro-1H-pyrrolo[2,3-b]pyridin-3-yl)-5-fluoro-pyrimidin-4-yl]amino]cyclohexyl]acetamide acetamide]
[1]; [9]
  EC50: < 5 µM
[2]; [10]
  IC50: < 5 µM

## CNC(=O)N[C@H]1CCC[C@H](Nc2nc(-c3c[nH]c4ncc(Cl)cc34)ncc2F)C1 (relative stereo) [Compound 458, 1-[trans-3-[[2-(5-chloro-1H-pyrrolo[2,3-b]pyridin-3-yl)-5-fluoro-pyrimidin-4-yl]amino]cyclohexyl]-3-methyl-urea]
[1]; [9]
  EC50: < 5 µM
[2]; [10]
  IC50: < 5 µM

## CN(C)C(=O)N[C@H]1CCC[C@H](Nc2nc(-c3c[nH]c4ncc(Cl)cc34)ncc2F)C1 (relative stereo) [Compound 459, 3-[trans-3-[[2-(5-chloro-1H-pyrrolo[2,3-b]pyridin-3-yl)-5-fluoro-pyrimidin-4-yl]amino]cyclohexyl]-1,1-dimethyl-urea]
[1]; [9]
  EC50: < 5 µM
[2]; [10]
  IC50: < 5 µM

## CNC(=O)[C@@H]1CCCC[C@@H]1Nc1nc(-c2c[nH]c3ncc(Cl)cc23)ncc1F (relative stereo) [Compound 539, Cis-2-(2-(5-chloro-1H-pyrrolo[2,3-b]pyridin-3-yl)-5-fluoropyrimidin-4-ylamino)-N-methylcyclohexanecarboxamide]
[1]; [3]
  EC50: < 5 µM
[2]; [4]
  IC50: 5 to 20 µM

## CN(C)C(=O)[C@@H]1CCCC[C@@H]1Nc1nc(-c2c[nH]c3ncc(Cl)cc23)ncc1F (relative stereo) [Compound 543, Cis-2-(2-(5-chloro-1H-pyrrolo[2,3-b]pyridin-3-yl)-5-fluoropyrimidin-4-ylamino)-N,N-dimethylcyclohexanecarboxamide]
[1]; [3]
  EC50: < 5 µM
[2]; [4]
  IC50: < 5 µM

## NC(=O)[C@@H]1CCCC[C@@H]1Nc1nc(-c2c[nH]c3ncc(Cl)cc23)ncc1F (relative stereo) [Compound 544, cis-2-(2-(5-chloro-1H-pyrrolo[2,3-b]pyridin-3-yl)-5-fluoropyrimidin-4-ylamino)cyclohexanecarboxamide]
[1]; [3]
  EC50: < 5 µM
[2]; [4]
  IC50: > 20 µM

## O=C(O)[C@@H]1CCCC[C@@H]1Nc1nc(-c2c[nH]c3ncc(Cl)cc23)ncc1F (relative stereo) [Compound 554]
[1]; […], replication of influenza virus (viral RNA, bDNA), class symbols, read-out: EC50 (mean all)
  EC50: 5 to 10 µM
[2]; read-out: IC50 (mean all)
  IC50: > 10 µM

## O=C(O)[C@H]1CCCC[C@H]1Nc1nc(-c2c[nH]c3ncc(Cl)cc23)ncc1F [Compound 579, (1S,2R)-2-(2-(5-chloro-1H-pyrrolo[2,3-b]pyridin-3-yl)-5-fluoropyrimidin-4-ylamino)cyclohexanecarboxylic acid]
[1]; [3]
  EC50: < 5 µM

## CC1(O)CCCCCC1Nc1nc(-c2c[nH]c3ncc(Cl)cc23)ncc1F (stereo not drawn) [Compound 581]
[1]; MDCK cells infected with A/PR/8/34, replication of influenza virus (viral RNA, bDNA), class symbols, read-out: EC50 (mean all)
  EC50: < 5 µM

## CC(C(N)=O)N1CCCC(Nc2nc(-c3c[nH]c4ncc(Cl)cc34)ncc2F)C1 [Compound 583, 2-((S)-3-((2-(5-chloro-1H-pyrrolo[2,3-b]pyridin-3-yl)-5-fluoropyrimidin-4-ylamino)piperidin-1-yl)propanamide]
[1]; [3]
  EC50: < 5 µM

## COCCC(=O)N1CCC(F)(F)CC1CNc1nc(-c2c[nH]c3ncc(Cl)cc23)ncc1F (stereo not drawn) [Compound 584, 1-(2-((2-(5-chloro-1H-pyrrolo[2,3-b]pyridin-3-yl)-5-fluoropyrimidin-4-ylamino)methyl)-4,4-difluoropiperidin-1-yl)-3-methoxypropan-1-one]
[1]; [3]
  EC50: < 5 µM

## Fc1cnc(-c2c[nH]c3ncc(Cl)cc23)nc1N[C@H]1CCCN(Cc2ncc[nH]2)C1 [Compound 589, (S)—N-(1-((1H-imidazol-2-yl)methyl)piperidin-3-yl)-2-(5-chloro-1H-pyrrolo[2,3-b]pyridin-3-yl)-5-fluoropyrimidin-4-amine]
[1]; [3]
  EC50: < 5 µM

## CC(C)(C(=O)O)N1CCC[C@H](Nc2nc(-c3c[nH]c4ncc(Cl)cc34)ncc2F)C1 [Compound 590]
[1]; [3]
  EC50: > 3.3 µM

## COCCOC(=O)N[C@@H]1CCC[C@H](Nc2nc(-c3c[nH]c4ncc(Cl)cc34)ncc2F)C1 [Compound 592, 2-methoxyethyl N-[(1R,3S)-3-[[2-(5-chloro-1H-pyrrolo[2,3-b]pyridin-3-yl)-5-fluoro-pyrimidin-4-yl]amino]cyclohexyl]carbamate]
[1]; [3]
  EC50: < 5 µM

## NC(=O)CN[C@@H]1CCC[C@H](Nc2nc(-c3c[nH]c4ncc(Cl)cc34)ncc2F)C1 [Compound 593]
[1]; [3]
  EC50: < 5 µM

## N#CCCCN1CCC[C@@H](CNc2nc(-c3c[nH]c4ncc(Cl)cc34)ncc2F)C1 [Compound 666, (S)-4-(3-((2-(5-chloro-1H-pyrrolo[2,3-b]pyridin-3-yl)-5-fluoropyrimidin-4-ylamino)methyl)piperidin-1-yl)butanenitrile]
[1]; [11]
  EC50: > 10 µM

## N#CCCN1CCC[C@@H](CNc2nc(-c3c[nH]c4ncc(Cl)cc34)ncc2F)C1 [Compound 667, (S)-3-(3-((2-(5-chloro-1H-pyrrolo[2,3-b]pyridin-3-yl)-5-fluoropyrimidin-4-ylamino)methyl)piperidin-1-yl)propanenitrile]
[1]; [11]
  EC50: > 10 µM

## Fc1cnc(-c2c[nH]c3ncc(Cl)cc23)nc1N[C@H]1CCCN(CC(F)(F)F)C1 [Compound 668, (S)-2-(5-chloro-1H-pyrrolo[2,3-b]pyridin-3-yl)-5-fluoro-N-(1-(2,2,2-trifluoroethyl)piperidin-3-yl)pyrimidin-4-amine]
[1]; [11]
  EC50: < 5 µM

## NC(=O)[C@@H]1CCC[C@H](Nc2nc(-c3c[nH]c4ncc(Cl)cc34)ncc2F)C1 [Compound 847]
[1]; mean all, A/PR/8/34 influenza virus replication, bDNA, read-out: EC50
  EC50: < 5 µM

## C[C@@]1(C(N)=O)CCC[C@H](Nc2nc(-c3c[nH]c4ncc(Cl)cc34)ncc2F)C1 [Compound 924, (1R,3S)-3-[[2-(5-chloro-1H-pyrrolo[2,3-b]pyridin-3-yl)-5-fluoro-pyrimidin-4-yl]amino]-1-methyl-cyclohexanecarboxamide]
[1]; [5]
  EC50: < 5 µM

## C[C@@]1(NC(=O)N2CCCC2)CCCC(Nc2nc(-c3c[nH]c4ncc(Cl)cc34)ncc2F)C1 (stereo partly drawn) [Compound 926]
[1]; [5]
  EC50: < 5 µM
